Measured values published in ChEMBL document CHEMBL3885861, “Open TG-GATES”.

Organism: Rattus norvegicus
Experiment: Open TG-GATES - Regimen: Single
Assay type: toxicity, organism-based, Sprague-Dawley
Parameters: regimen Single, gender Male, age 6 weeks
Details: in vivo, ip, 450 mg/kg, route intraperitoneal injection, dose level Middle; for APTT / Bas / Eos / Fbg / Hb / Ht / Lym / MCH / MCHC / MCV / Mono / Neu / PT / Plat / RBC / Ret / WBC: tissue Blood; for KIDNEY_L / KIDNEY_R / KIDNEY_TOTAL: tissue Kidney; for LIVER: tissue Liver; for A/G / ALP / ALT / AST / BUN / CRE / Ca / Cl / DBIL / GLC / IP / K / LDH / Na / PL / RALB / TBIL / TC / TG / TP / gamma-GTP: tissue Plasma

## CCCCS(=N)(=O)CCC(N)C(=O)O (configuration not stated) [BUTHIONINE SULFOXIMINE]
3 h
  TERMINAL_BW: 218.6 g
  APTT: 16.6 s
  Bas: 0%
  Eos: 0.8%
  Fbg: 216.4 mg/dL
  Hb: 13.3 g/dL
  Ht: 39.8%
  Lym: 69%
  MCH: 21.9 pg
  MCHC: 33.3%
  MCV: 65.7 fL
  Mono: 7.8%
  Neu: 22.2%
  PT: 12.1 s
  Plat: 112.2 x10_4/uL
  RBC: 606.8 x10_4/ul
  Ret: 8.5%
  WBC: 79.6 x10_2/uL
  KIDNEY_L: 1 g
  KIDNEY_R: 1 g
  KIDNEY_TOTAL: 2 g
  LIVER: 10.2 g
  A/G: 2.1
  ALP: 794 IU/L
  ALT: 42.6 IU/L
  AST: 72 IU/L
  BUN: 14 mg/dL
  CRE: 0.5 mg/dL
  Ca: 11 mg/dL
  Cl: 104 meq/L
  DBIL: 0.062 mg/dL
  GLC: 191.2 mg/dL
  IP: 10.5 mg/dL
  K: 4.5 meq/L
  LDH: 93 IU/L
  Na: 140.2 meq/L
  PL: 137.4 mg/dL
  RALB: 3.7 g/dL
  TBIL: 0.3 mg/dL
  TC: 71.4 mg/dL
  TG: 62.8 mg/dL
  TP: 5.5 g/dL
  gamma-GTP: 1.8 IU/L
6 h
  TERMINAL_BW: 217.2 g
  APTT: 16.6 s
  Bas: 0%
  Eos: 0.8%
  Fbg: 221.2 mg/dL
  Hb: 13.4 g/dL
  Ht: 40%
  Lym: 57.6%
  MCH: 22 pg
  MCHC: 33.5%
  MCV: 65.6 fL
  Mono: 4.6%
  Neu: 37.2%
  PT: 11 s
  Plat: 108.9 x10_4/uL
  RBC: 609.8 x10_4/ul
  Ret: 8.3%
  WBC: 96.1 x10_2/uL
  KIDNEY_L: 1 g
  KIDNEY_R: 1 g
  KIDNEY_TOTAL: 2 g
  LIVER: 9.4 g
  A/G: 2
  ALP: 837.2 IU/L
  ALT: 32 IU/L
  AST: 68.8 IU/L
  BUN: 11.4 mg/dL
  CRE: 0.7 mg/dL
  Ca: 10.8 mg/dL
  Cl: 104.8 meq/L
  DBIL: 0.016 mg/dL
  GLC: 193.2 mg/dL
  IP: 10 mg/dL
  K: 4.6 meq/L
  LDH: 100.6 IU/L
  Na: 140.4 meq/L
  PL: 129.8 mg/dL
  RALB: 3.5 g/dL
  TBIL: 0.3 mg/dL
  TC: 73.2 mg/dL
  TG: 43.2 mg/dL
  TP: 5.3 g/dL
  gamma-GTP: 1.2 IU/L
9 h
  TERMINAL_BW: 210.3 g
  APTT: 17 s
  Bas: 0%
  Eos: 0.8%
  Fbg: 253 mg/dL
  Hb: 13.3 g/dL
  Ht: 40%
  Lym: 63.2%
  MCH: 21.4 pg
  MCHC: 33.2%
  MCV: 64.5 fL
  Mono: 3.8%
  Neu: 32.2%
  PT: 11 s
  Plat: 113.1 x10_4/uL
  RBC: 620 x10_4/ul
  Ret: 8.4%
  WBC: 93.4 x10_2/uL
  KIDNEY_L: 1 g
  KIDNEY_R: 1 g
  KIDNEY_TOTAL: 1.9 g
  LIVER: 8.4 g
  A/G: 2.1
  ALP: 759.2 IU/L
  ALT: 31.2 IU/L
  AST: 61 IU/L
  BUN: 11.8 mg/dL
  CRE: 0.6 mg/dL
  Ca: 11 mg/dL
  Cl: 107 meq/L
  DBIL: 0.01 mg/dL
  GLC: 196.2 mg/dL
  IP: 9.6 mg/dL
  K: 4.8 meq/L
  LDH: 79.4 IU/L
  Na: 139.2 meq/L
  PL: 144.2 mg/dL
  RALB: 3.7 g/dL
  TBIL: 0.3 mg/dL
  TC: 84.4 mg/dL
  TG: 25 mg/dL
  TP: 5.5 g/dL
  gamma-GTP: 1.2 IU/L
24 h
  TERMINAL_BW: 229.8 g
  APTT: 16.6 s
  Bas: 0%
  Eos: 1.2%
  Fbg: 254 mg/dL
  Hb: 13.2 g/dL
  Ht: 39.6%
  Lym: 70.8%
  MCH: 21.4 pg
  MCHC: 33.2%
  MCV: 64.4 fL
  Mono: 9.4%
  Neu: 18.8%
  PT: 11.5 s
  Plat: 126.4 x10_4/uL
  RBC: 616.6 x10_4/ul
  Ret: 8.8%
  WBC: 85.5 x10_2/uL
  KIDNEY_L: 1 g
  KIDNEY_R: 1.1 g
  KIDNEY_TOTAL: 2.1 g
  LIVER: 11.1 g
  A/G: 1.8
  ALP: 1015.4 IU/L
  ALT: 30.2 IU/L
  AST: 60 IU/L
  BUN: 19.2 mg/dL
  CRE: 0.5 mg/dL
  Ca: 11.1 mg/dL
  Cl: 104.6 meq/L
  DBIL: 0.008 mg/dL
  GLC: 196.6 mg/dL
  IP: 8.3 mg/dL
  K: 4.4 meq/L
  LDH: 98 IU/L
  Na: 140 meq/L
  PL: 149.4 mg/dL
  RALB: 3.7 g/dL
  TBIL: 0.3 mg/dL
  TC: 80.6 mg/dL
  TG: 95.2 mg/dL
  TP: 5.8 g/dL
  gamma-GTP: 1.6 IU/L
